One compound from patent US20250092085A1, “SAPONIN-BASED ADJUVANTS AND VACCINES” (ASOCIACIÓN CENTRO DE INVESTIGACIÓN COOPERATIVA EN …, priority 2021, published 2025) can be followed below.

This assay deals with anti-OVA IgG antibody response (chicken ovalbumin (OVA) as model antigen). In words: In vivo experiment 1: adjuvant activity, anti-OVA IgG antibody production (ELISA of mouse sera). The arrangement: species or system C75BL6 mice. Conditions: toxin-free OVA 20 μg + adjuvant 50 μg, three bi-weekly subcutaneous injections, endpoint sera day 42; compared with OVA alone and OVA + prior art compound 13. Here is the method:
Total IgG values were calculated using chicken ovalbumin (OVA) as a model antigen for four groups of mice treated with the following subcutaneous injections: i) toxin-free OVA antigen (20 μg) in combination with the known QA-based adjuvant 13 (50 μg) (identified as QA+OVA), ii) toxin-free OVA antigen (20 μg) in combination with the new adjuvant 25 (50 μg) (identified as QA(oxime)+OVA), iii) toxin-free OVA (20 μg) alone as no-adjuvant control group (identified as OVA) and iv) PBS only as negative control (identified as PBS).
Quantification of antibody production. Antibody titers against OVA protein, or against MUC1 and TnMUC1 peptides in the case of the self-adjuvanting vaccine constructs. were measured by an indirect enzyme-linked immunosorbent assay (ELISA). […] Absorbance (OD, 450 nm) was immediately measured using a BioTek® Synergy HT multi-detection microplate reader.
A straightforward proof-of-principle in vivo experiment was carried out to directly compare the adjuvant activities of prior art compound 13 and the compound of the invention 25 in terms of IgG antibody production, using chicken ovalbumin (OVA) as a model antigen. […] Endpoint sera after three immunizations were probed via ELISA assays by coating 96-well plates with toxin-free OVA (0.5 μg/ml) and total IgG optical density (OD) values (day 42) were calculated (FIG. 4).
A general note: In an ELISA, binding on a coated surface is turned into a signal by an enzyme label.

Turning to `C[C@H]1O[C@@H](OC2C(OC(=O)[C@]34CCC(C)(C)CC3C3=CCC5C6(C)CC[C@H](O)C(C)(C=NO)[C@@H]6CC[C@@]5(C)[C@]3(C)C[C@@H]4O)O[C@H](CO)[C@H](NC(=O)CCCCCCCCCCC(=O)O)C2O)C(O)C(O)[C@H]1O[C@@H]1OC[C@@H](O)C(O)C1O` (stereo partly shown) [Compound 25], the “anti-OVA IgG antibody response (total IgG optical density values)” value is on record as “significantly higher”.
